Source: US7786141B2 (Vertex Pharmaceuticals Incorporated, priority 2004, dated 2010)

What was measured:
M4 muscarinic receptor = biological target: T1, M4 muscarinic receptor (Homo sapiens, UniProt P08173); experiment: Functional mobilization of intracellular calcium (FLIPR) in M4-CHO cells; assay type: cell-based; settings: Table 4; for Emax: 100% efficacy is the maximum response obtained with the Carbachol control; for M4 Activity: M4 receptor, calcium mobilization (FLIPR)
T1 construct: expressed in transfected cells; host or cells: CHO (M4-CHO)
T1 sequence (P08173 1-479): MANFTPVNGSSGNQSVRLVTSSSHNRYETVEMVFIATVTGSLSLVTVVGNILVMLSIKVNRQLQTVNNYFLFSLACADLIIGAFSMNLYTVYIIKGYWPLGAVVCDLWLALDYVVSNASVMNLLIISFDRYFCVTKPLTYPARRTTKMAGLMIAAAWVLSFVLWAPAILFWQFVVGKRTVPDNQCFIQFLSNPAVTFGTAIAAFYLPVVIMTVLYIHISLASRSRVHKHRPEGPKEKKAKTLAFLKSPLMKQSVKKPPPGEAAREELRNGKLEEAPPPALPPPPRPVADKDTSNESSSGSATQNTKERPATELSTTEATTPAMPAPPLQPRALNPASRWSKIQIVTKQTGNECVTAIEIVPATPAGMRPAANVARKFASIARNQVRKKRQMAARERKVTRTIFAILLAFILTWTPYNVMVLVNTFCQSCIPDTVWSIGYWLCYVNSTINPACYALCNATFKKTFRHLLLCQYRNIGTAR
Summary of the method: (§1)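 CHO cells stably expressing human M1 or M4 receptor were loaded with Fluo-3 AM (or Calcium 3 dye) in Hepes-buffered saline, pH 7.4, with 1 mM probenecid, 0.5% final DMSO. Agonist mode: compound added directly; antagonist mode: 15 min preincubation before carbachol at EC80. FLIPR fluorescence recorded 60 sec.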

M1 muscarinic receptor = biological target: T2, M1 muscarinic receptor (Homo sapiens, UniProt P11229); experiment: Functional mobilization of intracellular calcium (FLIPR) in M1-CHO cells; assay type: cell-based; settings: Table 4; for Emax: 100% efficacy is the maximum response obtained with the Carbachol control; for M1 Activity: M1 receptor, calcium mobilization (FLIPR)
T2 construct: expressed in transfected cells; host or cells: CHO (M1-CHO)
T2 sequence (P11229 1-460): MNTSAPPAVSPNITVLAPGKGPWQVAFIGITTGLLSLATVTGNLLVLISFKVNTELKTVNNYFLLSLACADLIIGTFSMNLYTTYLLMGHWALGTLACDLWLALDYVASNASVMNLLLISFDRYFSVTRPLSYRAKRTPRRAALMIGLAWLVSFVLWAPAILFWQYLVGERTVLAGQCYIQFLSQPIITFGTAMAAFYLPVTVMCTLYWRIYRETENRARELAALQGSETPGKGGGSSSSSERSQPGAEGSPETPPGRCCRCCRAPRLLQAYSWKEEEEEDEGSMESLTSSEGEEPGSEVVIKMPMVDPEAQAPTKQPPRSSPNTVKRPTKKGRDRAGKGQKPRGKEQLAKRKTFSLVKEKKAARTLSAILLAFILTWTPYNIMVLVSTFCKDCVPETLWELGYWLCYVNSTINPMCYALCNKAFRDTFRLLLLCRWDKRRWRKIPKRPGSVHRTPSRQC
Summary of the method: as §1

| Structure (SMILES) | Emax (M4 muscarinic receptor) [%] | M4 Activity (M4 muscarinic receptor) | Emax (M1 muscarinic receptor) [%] | M1 Activity (M1 muscarinic receptor) |
| --- | --- | --- | --- | --- |
| CC(=O)NC1CCC2(CCN(CCC3CCCN(C(C)=O)C3)CC2)c2ccccc21 (stereo not shown) [compound 874] | < 25 | x (activity was measured to be greater than 5.0 μM) | 25 to 100 | xx (activity was measured to be between 2.0 μM and 5.0 μM) |
| COC(=O)N1CCC(CCN2CCC3(CCC(NC(C)=O)c4ccccc43)CC2)CC1 (stereo not shown) [compound 875] | < 25 | x (activity was measured to be greater than 5.0 μM) | 25 to 100 | xxx (activity was measured to be less than 2.0 μM) |
| CC(=O)CN1CC2(CCN(C[C@H]3C[C@H]4C=CC3C4)CC2)c2cc(F)ccc21 [compound 877] | 25 to 100 | xxx (activity was measured to be less than 2.0 μM) | 25 to 100 | xxx (activity was measured to be less than 2.0 μM) |
| CC(=O)CN1CC2(CCN([C@@H]3C[C@H]4CCC3C4)CC2)c2cc(C)ccc21 [compound 878] | 25 to 100 | xxx (activity was measured to be less than 2.0 μM) | 25 to 100 | xxx (activity was measured to be less than 2.0 μM) |
| CCOC(=O)N1CCC(N2CCC3(CC2)CN(c2nccs2)c2ccc(F)cc23)CC1 [compound 879] | 25 to 100 | xxx (activity was measured to be less than 2.0 μM) | 25 to 100 | xxx (activity was measured to be less than 2.0 μM) |
| CC(=O)N1CCC(N2CCC3(CC2)CN(C(=O)N(C)C)c2ccc(F)cc23)CC1 [compound 880] | < 25 | x (activity was measured to be greater than 5.0 μM) | < 25 | x (activity was measured to be greater than 5.0 μM) |
| CC(=O)N[C@H]1CCC2(CCN(C3CCCCCC3)CC2)c2ccccc21 [compound 881] | 25 to 100 | xxx (activity was measured to be less than 2.0 μM) | 25 to 100 | xxx (activity was measured to be less than 2.0 μM) |
| CC(=O)N[C@@H]1CCC2(CCN(CC3CCCCC3)CC2)c2ccccc21 [compound 882] | < 25 | x (activity was measured to be greater than 5.0 μM) | < 25 | x (activity was measured to be greater than 5.0 μM) |
| COCCN1CC2(CCN(C3CC4CCC(C4)C3)CC2)c2cc(F)ccc21 (stereo not shown) [compound 884] | 25 to 100 | xxx (activity was measured to be less than 2.0 μM) | 25 to 100 | xxx (activity was measured to be less than 2.0 μM) |
| CN(C)C(=O)N1CC2(CCN(C3CCN(C(=O)OCC(F)F)CC3)CC2)c2cc(F)ccc21 [compound 885] | 25 to 100 | xxx (activity was measured to be less than 2.0 μM) | 25 to 100 | xxx (activity was measured to be less than 2.0 μM) |
| CC#CCOC(=O)N1CC[C@@H](CN2CCC3(CC2)CN(C(C)=O)c2ccccc23)C1 [compound 886] | 25 to 100 | xxx (activity was measured to be less than 2.0 μM) | 25 to 100 | xxx (activity was measured to be less than 2.0 μM) |
| CN(C)C(=O)N1CC2(CCN(C3CCN(C(=O)c4ccccc4F)CC3)CC2)c2cc(F)ccc21 [compound 887] | < 25 | x (activity was measured to be greater than 5.0 μM) | 25 to 100 | xx (activity was measured to be between 2.0 μM and 5.0 μM) |
| CC(=O)NC1CCC2(CCN(CCC3CCCN(C(=O)N(C)C)C3)CC2)c2ccccc21 (stereo not shown) [compound 888] | < 25 | x (activity was measured to be greater than 5.0 μM) | 25 to 100 | xxx (activity was measured to be less than 2.0 μM) |
| O=C(N[C@H]1CCC2(CCN(CC3CCCCC3)CC2)c2ccccc21)C1CC1 [compound 889] | 25 to 100 | xxx (activity was measured to be less than 2.0 μM) | 25 to 100 | xxx (activity was measured to be less than 2.0 μM) |
| CCOC(=O)N1CCC(N2CCC3(CC2)CN(c2ccsc2)c2ccc(F)cc23)CC1 [compound 891] | 25 to 100 | xxx (activity was measured to be less than 2.0 μM) | 25 to 100 | xxx (activity was measured to be less than 2.0 μM) |
| CCC(C)(C)C1CCC(N2CCC3(CC2)CN(C(C)=O)c2ccc(F)cc23)CC1 (stereo not shown) [compound 892] | < 25 | x (activity was measured to be greater than 5.0 μM) | < 25 | x (activity was measured to be greater than 5.0 μM) |
| CC(=O)N1CC2(CCN(C3CCN(c4cncc(CC(C)C)n4)CC3)CC2)c2ccccc21 [compound 893] | < 25 | x (activity was measured to be greater than 5.0 μM) | < 25 | x (activity was measured to be greater than 5.0 μM) |
| CC(=O)N1CC2(CCN(C3CCN(c4nccs4)CC3)CC2)c2ccccc21 [compound 894] | < 25 | x (activity was measured to be greater than 5.0 μM) | 25 to 100 | x (activity was measured to be greater than 5.0 μM) |
| CN(C)C(=O)N1CC2(CCN(C3CCN(c4cnccn4)CC3)CC2)c2cc(F)ccc21 [compound 895] | 25 to 100 | xxx (activity was measured to be less than 2.0 μM) | 25 to 100 | xxx (activity was measured to be less than 2.0 μM) |
| CCOC(=O)N1CCC(N2CCC3(CC2)CN(c2ccc(OC)nn2)c2ccc(F)cc23)CC1 [compound 896] | 25 to 100 | xxx (activity was measured to be less than 2.0 μM) | 25 to 100 | xxx (activity was measured to be less than 2.0 μM) |
| CCOC(=O)N1C2CCC1CC(N1CCC3(CC1)CN(C(C)=O)c1c(F)cc(F)cc13)C2 (stereo not shown) [compound 897] | 25 to 100 | xxx (activity was measured to be less than 2.0 μM) | 25 to 100 | xxx (activity was measured to be less than 2.0 μM) |
| Cc1cc(C(=O)N2CCC(N3CCC4(CC3)CN(C(=O)N(C)C)c3ccc(F)cc34)CC2)nn1C [compound 898] | < 25 | x (activity was measured to be greater than 5.0 μM) | < 25 | x (activity was measured to be greater than 5.0 μM) |
| CN(C)C(=O)N1CC2(CCN(C3CCN(C(=O)c4ccoc4)CC3)CC2)c2cc(F)ccc21 [compound 900] | < 25 | x (activity was measured to be greater than 5.0 μM) | < 25 | xx (activity was measured to be between 2.0 μM and 5.0 μM) |
| O=C1CC2(CCN([C@@H]3C[C@H]4CC[C@@H]3C4)CC2)c2ccc(Cl)cc21 [compound 901] | 25 to 100 | xx (activity was measured to be between 2.0 μM and 5.0 μM) | 25 to 100 | xx (activity was measured to be between 2.0 μM and 5.0 μM) |
| CCOC(=O)N1CC2(CCN(C3CC4CCC3C4)CC2)c2cc(C)ccc21 (stereo not shown) [compound 902] | < 25 | x (activity was measured to be greater than 5.0 μM) | 25 to 100 | x (activity was measured to be greater than 5.0 μM) |
